From patent publication US10624968B2, “Compounds for treating cancer” (Bicycle Therapeutics Limited, priority 2017, dated 2020)
pIC50: −log10 of the molar value. Where two headings read alike, the source gives them in different places. Starred links: 1 amine or outer side, 2 acyl side, 3 side chain; linkers in the order of their positions; H or OH if unused. Positions of bridges follow the written chain, without caps; N, C: chain ends. Non-standard residues stand in square brackets, D forms with d. Residues, ends and D or L forms follow the SMILES beside them. ξ: configuration not given here. *: point of attachment. X3 = COc1cc2cc(c1Cl)N(C)C(=O)C[C@H](OC(=O)[C@H](C)N(C)C(=O)CCSCc1ccc(N*)cc1)[C@]1(C)O[C@H]1[C@H](C)[C@@H]1C[C@@](O)(NC(=O)O1)[C@H](OC)/C=C/C=C(\C)C2; Dolaproine = CO[C@@H]([C@@H]1CCCN1)[C@@H](C)C(=O)O; Dil = CC[C@H](C)[C@H](NC)[C@@H](CC(=O)O)OC; TBMB = c1c(C[*:1])cc(C[*:3])cc1C[*:2]; Glutaryl = O=C(CCCC(=O)[*:2])[*:1]; X1 = C[C@@H](N*)[C@@H](O)c1ccccc1; ξ1Nal = NC(Cc1cccc2ccccc12)C(=O)O; Cit = NC(=O)NCCC[C@H](N)C(=O)O; NMeV = CN[C@H](C(=O)O)C(C)C; ξY = NC(Cc1ccc(O)cc1)C(=O)O; ξTle = CC(C)(C)C(N)C(=O)O; ξF = NC(Cc1ccccc1)C(=O)O; ξE = NC(CCC(=O)O)C(=O)O; ξD = NC(CC(=O)O)C(=O)O; ξN = NC(=O)CC(N)C(=O)O; ξC = NC(CS)C(=O)O; βAla = NCCC(=O)O; ξA = CC(N)C(=O)O; Sar = CNCC(=O)O

What was measured:
[1] = Mortality, morbidity and body weight in HT1080 xenograft study (Example 13); type: in vivo, mouse; details: 10 mg/kg biw
Protocol: All the procedures related to animal handling, care and the treatment in the study were performed following the guidance of the Association for Assessment and Accreditation of Laboratory Animal Care (AAALAC). At the time of routine monitoring, the animals were daily checked for any effects of tumor growth and treatments on normal behavior such as mobility, food and water consumption (by looking only), body weight gain/loss (body weights were measured every day), eye/hair matting and any other abnormal effect as stated in the protocol. Death and observed clinical signs were recorded on the basis of the numbers of animals within each subset.
Body weight was monitored regularly as an indirect measure of toxicity.

EBC-1 = assay: cells; details: for pIC50: read-out: Re IC50
Text: (§1) Details of the initial cell plating procedure are described in Table 3.
(§2) Data Details for Tables 5 and 6. Inhibition %=(Max−Sample value)/(Max−Min)*100.
(§3) The IC50 curves were generated by 4 Parameter Logistic Model—Sigmoidal Dose-Response Model as follows: Y=Bottom+(Top−Bottom)/(1+10^((log EC50-X)*HillSlope)).

HCC1806 = assay: cells; details: for pIC50: read-out: Re IC50
Text: as §1, §2, §3

HCT15 = assay: cells; details: for pIC50: read-out: Re IC50
Text: as §1, §2, §3

HT1080 = assay: cells; details: for pIC50: read-out: Re IC50
Text: as §1, §2, §3

HT29 = assay: cells; details: for pIC50: read-out: Re IC50
Text: as §1, §2, §3

MDA-MB-231 = assay: cells; details: for pIC50: read-out: Re IC50
Text: as §1, §2, §3

MOLP-8 = assay: cells; details: for pIC50: read-out: Re IC50
Text: as §1, §2, §3

NCI-H1975 = assay: cells; details: for pIC50: read-out: Re IC50
Text: as §1, §2, §3

NCI-H292 = assay: cells; details: for pIC50: read-out: Re IC50
Text: as §1, §2, §3

PC-3 = assay: cells; details: for pIC50: read-out: Re IC50
Text: as §1, §2, §3

SNU-16 = assay: cells; details: for pIC50: read-out: Re IC50
Text: as §1, §2, §3

HT1080 cells [2] = assay: Cytotoxicity in HT1080 cells in presence and absence of 1 mM bacitracin (ATPlite, 24 hour exposure)
Protocol: HT1080 cells (ATCC, via LGC, BIC918) Maintained in EMEM media (Sigma M2279)+10% FBS (Sigma Code F7524)+4 mM L-Glu (Invitrogen Cat 25030-024)
I-1a and Toxins with Bacitracin—24 or 72 Hour Exposure in 96 Well Plates
DB seeded cells in normal media, 75 μL in 96 well clear plates, ˜24 hours previous.
HT1080—7.5 k cells/well: 50% confluent upon dosing.
Dilute in media 1:42.85=5 μL DMSO dilute+209 μL media=>use 15 μL per well
This gives a 5 μM top concentration for BDCs in assay
Add 10 µL of media±bacitracin (2 plates of each)−leave for 1 hr
(§4) Bacitracin=1 mM final concentration. This requires a 10 mM concentration with no DMSO.
Add 15 μL treatment per well as in Table 19, below.
Seal plates with gas permeable membrane and incubate at 37° C.
Washout HT1080 plates with 2×150 μL PBS at 24 h and add 100 μL fresh media
At t=72 h, equilibrate ATPlite reagent to room temperature. Add 10 ml buffer to each vial of lyophilized substrate. Add 100 μL reagent per well. Seal with PCR seal and cover to protect from light. Shake for 20 mins before reading luminescence

L540 cells = assay: Cytotoxicity in L540 cells in presence and absence of 1 mM bacitracin (ATPlite, 72 hour exposure); type: cell-based
Protocol: L540 cells (DSMZ # ACC72, BIC5121), maintained in RPMI-1640 medium (Sigma # R8758)+20% heat-inactivated serum
L540—20 k cells/well: 40% confluent upon dosing.
as §4
Add 100 μL reagent per well. […] Shake for 20 mins before reading luminescence

HT1080 cells [3] = assay: HT1080 cytotoxicity (ATPLite) in presence or absence of excess binding or non-binding peptide; type: cell-based; details: for pIC50: mean ± standard deviation
Protocol: The target dependence of cytotoxicity of I-1a in cell lines expressing or lacking MT1-MMP was assessed by measuring ATP levels in an endpoint assay after 24 hours exposure to toxin, in the presence or absence of an excess of binding peptide or non-binding control peptide.
HT1080 cells were seeded in 96 well plates (75 μL/well) and incubated overnight at 37° C.+5% CO2. The next day, peptides were prepared in buffer from a DMSO stock. 10 μL of buffer or peptide was added to the cells and incubated for 1 hour. Toxins were diluted in cell culture media and 15 μL/well was added to the cells (<0.5% final DMSO). Cells were approximately 30-50% confluent upon dosing. Plates were sealed with gas permeable seals and incubated for 24 hours at 37° C.+5% CO2. After 24 hours, media was removed, cells were washed with PBS and 100 μL fresh media was added per well. Cells were incubated for a further 48 hours at 37° C.+5% CO2.
ATPLite reagent (Perkin Elmer) was equilibrated to room temperate and reconstituted in buffer as per the manufacturer's instructions. 100 μL reagent was added per well. Plates were sealed and shaken gently for 20 minutes to ensure complete cell lysis before luminescence was read using a BMG Pherastar. […] Data was analyzed using GraphPad Prism. Non-linear regression fit was used to calculate an IC50 for each toxic agent: Y=Bottom+(Top−Bottom)/(1+10^((Log IC50-X)*HillSlope)).

11 tumor cell lines = assay: 11 cancer cell line panel cytotoxicity, statements on the whole panel; details: 72 h, read-out: IC50 on all 11 tumor cell lines
Text: as §1, §2, §3

[4] = read-out: IC50 with 1 mM bacitracin, 24 hour exposure, + 1 mM bacitracin (PDI inhibitor)
[5] = read-out: Standard IC50, 24 hour exposure (high MT1 expression), no block
[6] = 72 hour exposure (low/no MT1 expression), no block, read-out: Standard IC50
[7] = read-out: IC50 with 1 mM bacitracin, 72 hour exposure, + 1 mM bacitracin

Row | Structure (SMILES) | Top inhibition% (EBC-1; EBC-1, 72 hours) | pIC50 (EBC-1; EBC-1, 72 hours) | Top inhibition% (HCC1806; HCC1806, 72 hours) | pIC50 (HCC1806; HCC1806, 72 hours) | Top inhibition% (HCT15; HCT15, 72 hours) | pIC50 (HCT15; HCT15, 72 hours) | Top inhibition% (HT1080; HT1080, 72 hours) | pIC50 (HT1080; HT1080, 72 hours) | Top inhibition% (HT29; HT29, 72 hours) | pIC50 (HT29; HT29, 72 hours) | Top inhibition% (MDA-MB-231; MDA-MB-231, 72 hours) | pIC50 (MDA-MB-231; MDA-MB-231, 72 hours) | Top inhibition% (MOLP-8; MOLP-8, 72 hours) | pIC50 (MOLP-8; MOLP-8, 72 hours) | Top inhibition% (NCI-H1975; NCI-H1975, 72 hours) | pIC50 (NCI-H1975; NCI-H1975, 72 hours) | Top inhibition% (NCI-H292; NCI-H292, 72 hours) | pIC50 (NCI-H292; NCI-H292, 72 hours) | Top inhibition% (PC-3; PC-3, 72 hours) | Top inhibition% (SNU-16; SNU-16, 72 hours) | also measured
1 | COc1cc2cc(c1Cl)N(C)C(=O)C[C@H](OC(=O)[C@H](C)N(C)C(=O)CCSCc1ccc(NC(=O)[C@H](CCCNC(N)=O)NC(=O)[C@@H](NC(=O)CCCC(=O)NCCC(=O)N(C)CC(=O)N(C)CC(=O)N(C)CC(=O)N(C)CC(=O)N(C)CC(=O)N(C)CC(=O)N(C)CC(=O)N(C)CC(=O)N(C)CC(=O)N(C)CC(=O)NC(C)C(=O)NC3CSCc4cc5cc(c4)CSCC(NC(=O)C(C)NC(=O)C(Cc4cccc6ccccc46)NC(=O)C(CCC(=O)O)NC(=O)C(CC(N)=O)NC(=O)C(C)NC3=O)C(=O)NC(C)C(=O)NC(CC(=O)O)C(=O)NC(Cc3ccccc3)C(=O)NC(Cc3ccc(O)cc3)C(=O)NC(CC(=O)O)C(=O)NC(C(C)(C)C)C(=O)NC(C(N)=O)CSC5)C(C)C)cc1)[C@]1(C)O[C@H]1[C@H](C)[C@@H]1C[C@@](O)(NC(=O)O1)[C@H](OC)/C=C/C=C(\C)C2 (stereo partly drawn) [Compound I-7] ({X3-Cit-Val-Glutaryl-βAla}-[Sar][Sar][Sar][Sar][Sar][Sar][Sar][Sar][Sar][Sar][ξA][ξC][ξA][ξN][ξE][ξ1Nal][ξA][ξC][ξA][ξD][ξF][ξY][ξD][ξTle][ξC]-NH2; linker 12-18-25 via TBMB) | – | – | – | – | – | – | – | – | – | – | – | – | – | – | – | – | – | – | – | – | mice died during the dosing period [1]: 2/3
2 | COc1cc2cc(c1Cl)N(C)C(=O)C[C@H](OC(=O)[C@H](C)N(C)C(=O)CCSSC)[C@]1(C)O[C@H]1[C@H](C)[C@@H]1C[C@@](O)(NC(=O)O1)[C@H](OC)/C=C/C=C(\C)C2 [DM1-Sme] | 65% | 9.49 | 88% | 9.21 | 94% | 9.03 | 99% | 9.66 | 82% | 9.17 | 49% | 9.10 | 92% | 9.68 | 64% | 8.82 | 77% | 9.57 | 54% | 98% | pIC50 (PC-3; PC-3, 72 hours): 9.74; pIC50 (SNU-16; SNU-16, 72 hours): 9.11; Fold shift with bacitracin (HT1080 cells [2]; 24 hour exposure, 1 mM bacitracin vs none): 5.9; pIC50 (HT1080 cells [2]; [4]): 9.39; pIC50 (HT1080 cells [2]; [5]): 10.15; pIC50 (L540 cells; [6]): 8.02; pIC50 (L540 cells; [7]): 7.92
3 | CC[C@H](C)[C@@H]([C@@H](CC(=O)N1CCC[C@H]1[C@H](OC)[C@@H](C)C(=O)N[C@H](C)[C@@H](O)c1ccccc1)OC)N(C)C(=O)[C@@H](NC(=O)[C@@H](NC)C(C)C)C(C)C [MMAE, monomethyl auristatin E] (H-[NMeV]V[Dil][Dolaproine]-X1) | 67% | 9.46 | 91% | 9.59 | 100% | 7.67 | 97% | 9.17 | 81% | 9.38 | 61% | 9.21 | 93% | 9.19 | 65% | 9.42 | 86% | 9.47 | 58% | 99% | pIC50 (PC-3; PC-3, 72 hours): 9.07; pIC50 (SNU-16; SNU-16, 72 hours): 9.74; pIC50 (HT1080 cells [2]; [4]): 9.82; pIC50 (HT1080 cells [2]; [5]): 10.08; pIC50 (L540 cells; [6]): 9.31; pIC50 (L540 cells; [7]): 9.55; pIC50 (HT1080 cells [3]; 24 hours exposure, No block, 3 repeats): 10.22; Maximum kill (HT1080 cells [3]; +250 μM binding peptide): 95%; pIC50 (HT1080 cells [3]; +250 μM binding peptide): 10.30; Maximum kill (HT1080 cells [3]; +250 μM non-binding peptide): 95%; pIC50 (HT1080 cells [3]; +250 μM non-binding peptide): 10.30; Maximum kill (HT1080 cells [3]; No block, compared to a lysis control): 95%
4 | CCc1c2c(nc3ccc(O)cc13)-c1cc3c(c(=O)n1C2)COC(=O)[C@]3(O)CC [SN38] | 87% | – | 96% | – | 80% | – | 96% | – | 98% | – | 78% | – | 88% | – | 116% | – | 92% | – | 78% | 76% | pIC50 (EBC-1; Homo sapiens, EBC-1, 72 h): 8.63; pIC50 (HCC1806; Homo sapiens, HCC1806, 72 h): 8.33; pIC50 (HCT15; Homo sapiens, HCT-15, 72 h): 7.94; pIC50 (HT1080; Homo sapiens, HT-1080, 72 h): 8.87; pIC50 (HT29; Homo sapiens, HT-29, 72 h): 7.63; pIC50 (MDA-MB-231; Homo sapiens, MDA-MB-231, 72 h): 7.60; pIC50 (MOLP-8; Homo sapiens, MOLP-8, 72 h): 8.44; pIC50 (NCI-H1975; Homo sapiens, NCI-H1975, 72 h): 6.57; pIC50 (NCI-H292; Homo sapiens, NCI-H292, 72 h): 8.46; pIC50 (PC-3; Homo sapiens, PC-3, 72 h): 7.31; pIC50 (SNU-16; Homo sapiens, SNU-16, 72 h): 8.67; pIC50 (11 tumor cell lines): > 6.52
